Measurements: PubChem BioAssay (NCI)
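All cell lines were grown in 96-well plates and treated with compound for 48 hours. At the TGI there is no net growth.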

Key:
Assay in all cases: inhibition of tumour cell growth, NCI panel, 48 h
SNB-19 CNS = test system: SNB-19 CNS
OVCAR-5 ovarian = test system: OVCAR-5 ovarian
HCT-15 colon = test system: HCT-15 colon
KM12 colon = test system: KM12 colon
MDA-MB-231 breast = test system: MDA-MB-231 breast
U251 CNS = test system: U251 CNS
SK-OV-3 ovarian = test system: SK-OV-3 ovarian
SK-MEL-5 melanoma = test system: SK-MEL-5 melanoma
COLO 205 colon = test system: COLO 205 colon
786-0 renal = test system: 786-0 renal
SF-295 CNS = test system: SF-295 CNS
HL-60(TB) leukemia = test system: HL-60(TB) leukemia
MALME-3M melanoma = test system: MALME-3M melanoma
TK-10 renal = test system: TK-10 renal
SK-MEL-28 melanoma = test system: SK-MEL-28 melanoma
RPMI-8226 leukemia = test system: RPMI-8226 leukemia
DLD-1 colon = test system: DLD-1 colon
SF-539 CNS = test system: SF-539 CNS
CCRF-CEM leukemia = test system: CCRF-CEM leukemia
RXF 393 renal = test system: RXF 393 renal
ACHN renal = test system: ACHN renal
SR leukemia = test system: SR leukemia
HS 578T breast = test system: HS 578T breast
HT29 colon = test system: HT29 colon
CAKI-1 renal = test system: CAKI-1 renal
HOP-92 NSCLC = test system: HOP-92 NSCLC
A498 renal = test system: A498 renal
OVCAR-8 ovarian = test system: OVCAR-8 ovarian
SNB-78 CNS = test system: SNB-78 CNS
KM20L2 colon = test system: KM20L2 colon
M14 melanoma = test system: M14 melanoma
A549 NSCLC = test system: A549 NSCLC
MCF7 breast = test system: MCF7 breast
SF-268 CNS = test system: SF-268 CNS
UACC-257 melanoma = test system: UACC-257 melanoma
IGROV1 ovarian = test system: IGROV1 ovarian
LOX IMVI melanoma = test system: LOX IMVI melanoma
SN12C renal = test system: SN12C renal
MOLT-4 leukemia = test system: MOLT-4 leukemia
NCI-H226 lung = test system: NCI-H226 lung
OVCAR-3 ovarian = test system: OVCAR-3 ovarian
HCT-116 colon = test system: HCT-116 colon
HOP-62 NSCLC = test system: HOP-62 NSCLC
T-47D breast = test system: T-47D breast
NCI-H23 lung = test system: NCI-H23 lung
SW-620 colon = test system: SW-620 colon
SNB-75 CNS = test system: SNB-75 CNS
NCI-H522 lung = test system: NCI-H522 lung
BT-549 breast = test system: BT-549 breast
UO-31 renal = test system: UO-31 renal
SK-MEL-2 melanoma = test system: SK-MEL-2 melanoma
EKVX NSCLC = test system: EKVX NSCLC
UACC-62 melanoma = test system: UACC-62 melanoma
DMS 273 small cell lung = test system: DMS 273 small cell lung
OVCAR-4 ovarian = test system: OVCAR-4 ovarian
K-562 leukemia = test system: K-562 leukemia
MDA-MB-435 = test system: MDA-MB-435
DU-145 prostate = test system: DU-145 prostate
NCI-H460 lung = test system: NCI-H460 lung
HCC-2998 colon = test system: HCC-2998 colon
M19-MEL melanoma = test system: M19-MEL melanoma
HOP-18 NSCLC = test system: HOP-18 NSCLC
LXFL 529 NSCLC = test system: LXFL 529 NSCLC
DMS 114 small cell lung = test system: DMS 114 small cell lung

CN(C)c1ccc(/C=C2\C[N+](C)(C)C/C(=C\c3ccc(N(C)C)cc3)C2=O)cc1
TGI (SNB-19 CNS): 45.4 µM | TGI (OVCAR-5 ovarian): 96.5 µM | TGI (HCT-15 colon): > 100 µM | TGI (KM12 colon): 19.1 µM | TGI (MDA-MB-231 breast): 36.7 µM | TGI (U251 CNS): 25 µM | TGI (SK-OV-3 ovarian): 73.1 µM | TGI (SK-MEL-5 melanoma): 23.6 µM | TGI (COLO 205 colon): 8.36 µM | TGI (786-0 renal): 85.3 µM | TGI (SF-295 CNS): > 100 µM | TGI (HL-60(TB) leukemia): 13.1 µM | TGI (MALME-3M melanoma): 46.4 µM | TGI (TK-10 renal): > 100 µM | TGI (SK-MEL-28 melanoma): 37.4 µM | TGI (RPMI-8226 leukemia): 28.5 µM | TGI (DLD-1 colon): > 100 µM | TGI (SF-539 CNS): 49.9 µM | TGI (CCRF-CEM leukemia): 38.9 µM | TGI (RXF 393 renal): > 77.7 µM | TGI (ACHN renal): > 100 µM | TGI (SR leukemia): 36.6 µM | TGI (HS 578T breast): > 100 µM | TGI (HT29 colon): 24 µM | TGI (CAKI-1 renal): > 100 µM | TGI (HOP-92 NSCLC): 78.9 µM | TGI (A498 renal): > 100 µM | TGI (OVCAR-8 ovarian): 65.7 µM | TGI (SNB-78 CNS): > 95.8 µM | TGI (KM20L2 colon): 27.7 µM | TGI (M14 melanoma): 74.8 µM | TGI (A549 NSCLC): > 100 µM | TGI (MCF7 breast): 30.5 µM | TGI (SF-268 CNS): 66.2 µM | TGI (UACC-257 melanoma): 32.4 µM | TGI (IGROV1 ovarian): 18 µM | TGI (LOX IMVI melanoma): 36.4 µM | TGI (SN12C renal): > 78 µM | TGI (MOLT-4 leukemia): 59.3 µM | TGI (NCI-H226 lung): 90.8 µM | TGI (OVCAR-3 ovarian): 17.2 µM | TGI (HCT-116 colon): 22.5 µM | TGI (HOP-62 NSCLC): > 96.7 µM | TGI (T-47D breast): 46.6 µM | TGI (NCI-H23 lung): 54.4 µM | TGI (SW-620 colon): 43.2 µM | TGI (SNB-75 CNS): 67.3 µM | TGI (NCI-H522 lung): 26.2 µM | TGI (BT-549 breast): 34.3 µM | TGI (UO-31 renal): > 100 µM | TGI (SK-MEL-2 melanoma): 36.1 µM | TGI (EKVX NSCLC): > 100 µM | TGI (UACC-62 melanoma): 30.6 µM | TGI (DMS 273 small cell lung): 18.5 µM | TGI (OVCAR-4 ovarian): > 100 µM | TGI (K-562 leukemia): 31.3 µM | TGI (MDA-MB-435): 30 µM | TGI (DU-145 prostate): > 100 µM | TGI (NCI-H460 lung): > 59 µM | TGI (HCC-2998 colon): 22.1 µM | TGI (M19-MEL melanoma): 30.3 µM | TGI (HOP-18 NSCLC): > 100 µM | TGI (LXFL 529 NSCLC): 20.4 µM | TGI (DMS 114 small cell lung): 26.1 µM

c1ccc(N=c2snc(-c3ccccc3)s2)cc1
TGI (SNB-19 CNS): > 100 µM | TGI (HCT-15 colon): > 100 µM | TGI (KM12 colon): > 100 µM | TGI (U251 CNS): > 100 µM | TGI (SK-OV-3 ovarian): > 100 µM | TGI (SK-MEL-5 melanoma): > 100 µM | TGI (COLO 205 colon): > 100 µM | TGI (786-0 renal): > 100 µM | TGI (HL-60(TB) leukemia): > 100 µM | TGI (MALME-3M melanoma): > 100 µM | TGI (TK-10 renal): > 100 µM | TGI (SK-MEL-28 melanoma): > 100 µM | TGI (RPMI-8226 leukemia): > 100 µM | TGI (DLD-1 colon): > 100 µM | TGI (SF-539 CNS): > 100 µM | TGI (CCRF-CEM leukemia): > 100 µM | TGI (RXF 393 renal): > 100 µM | TGI (ACHN renal): > 100 µM | TGI (SR leukemia): > 100 µM | TGI (CAKI-1 renal): > 100 µM | TGI (A498 renal): > 100 µM | TGI (OVCAR-8 ovarian): > 100 µM | TGI (SNB-78 CNS): > 100 µM | TGI (KM20L2 colon): > 100 µM | TGI (M14 melanoma): > 100 µM | TGI (A549 NSCLC): > 100 µM | TGI (SF-268 CNS): > 100 µM | TGI (UACC-257 melanoma): > 100 µM | TGI (IGROV1 ovarian): > 100 µM | TGI (SN12C renal): > 100 µM | TGI (MOLT-4 leukemia): > 100 µM | TGI (NCI-H226 lung): > 100 µM | TGI (HCT-116 colon): > 100 µM | TGI (HOP-62 NSCLC): > 100 µM | TGI (SW-620 colon): > 100 µM | TGI (SNB-75 CNS): > 100 µM | TGI (NCI-H522 lung): > 100 µM | TGI (UO-31 renal): > 100 µM | TGI (SK-MEL-2 melanoma): > 100 µM | TGI (UACC-62 melanoma): > 100 µM | TGI (DMS 273 small cell lung): > 100 µM | TGI (OVCAR-4 ovarian): > 100 µM | TGI (K-562 leukemia): > 100 µM | TGI (NCI-H460 lung): > 100 µM | TGI (HCC-2998 colon): > 100 µM | TGI (M19-MEL melanoma): > 100 µM | TGI (HOP-18 NSCLC): > 100 µM | TGI (LXFL 529 NSCLC): > 100 µM | TGI (DMS 114 small cell lung): > 100 µM
